According to patent publication US5614533A, “Substituted pipecolinic acid derivatives as HIV protease inhibitors” (Bio-Mega/Boehringer Ingelheim Research, Inc., priority 1994, dated 1997):
Blank lines part the entries; values can stand above or below the molecule they belong to.

How the values were obtained:
[1] = target: T1, HIV protease (Human immunodeficiency virus type 1 group M subtype B, UniProt P04585); assay: Recombinant HIV Protease HPLC Assay; type: biochemical; conditions: 37°, 30 min, pH 5.5
T1 construct: HIV protease was expressed in E. coli; made in house; host or cells: E. coli (plasmid pBRT1 prt+)
Outline: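 Recombinant protease from E. coli (pBRT1 prt+ construct), purified and diluted 1/38 for use, cleaves the decapeptide substrate VSFNFPQITL-NH2, containing an HIV polyprotein cleavage site. Inhibition of cleavage is monitored by HPLC.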

[2] = system: HIV (H9/HTLV-IIIB) in C8166 cells; assay: plaque assay: inhibition of syncytia formation in HIV-infected C8166 cells; type: cell-based; conditions: Human immunodeficiency virus 1, IIIB, 72 h, 50% inhibition of syncytia formation
Outline: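 C8166 cells (5×10^4/well) infected with 50× TCID50 H9/HTLV-IIIB in HEPES-buffered RPMI 1640 (pH 7.2), 10% FCS, with test compound in triplicate; 72 h at 37°, 5% CO2. Syncytia centers counted by phase-contrast microscopy; EC50 from percent inhibition versus serial dilutions by non-linear regression.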

IC50 ([1]; Table VI): 2.6 nM
EC50 ([2]; Table VI): 61 nM
Structure (SMILES): C[C@@H](O)[C@H](NC(=O)c1ccc2ccccc2n1)C(=O)N[C@@H](Cc1ccccc1)[C@H](O)CN1CC[C@@H](S(=O)(=O)c2ccccc2)C[C@H]1C(=O)NC(C)(C)C [Table VI, entry 6, N-tert-butyl-1-{2(R)-hydroxy-4-phenyl-3(S)-{{N-(2-quinolylinylcarbonyl)threonyl}amino}butyl}-4(R)-(phenylsulfonyl)piperidine-2(S)-carboxamide]

IC50 ([1]; Table VI): 2.1 nM
EC50 ([2]; Table VI): 60 nM
Structure (SMILES): CC(C)(C)NC(=O)[C@@H]1C[C@H](Sc2ncccn2)CCN1C[C@@H](O)[C@H](Cc1ccccc1)NC(=O)[C@H](CC(N)=O)NC(=O)c1ccc2ccccc2n1 [Table VI, entry 3, N-tert-butyl-1-{2(R)-hydroxy-4-phenyl-3(S)-{{N-(2-quinolylinylcarbonyl)asparaginyl}amino}butyl}-4(R)-(2-pyrimidinylthio)piperidine-2(S)-carboxamide]

IC50 ([1]; Table VII): 9.8 nM
EC50 ([2]; Table VII): 360 nM
Structure (SMILES): CC(C)(C)NC(=O)[C@@H]1C[C@H](Sc2ccncc2)CCN1C[C@@H](O)[C@H](Cc1ccccc1)NC(=O)c1cc(Cl)ccc1Cl [Table VII, entry 7, N-tert-butyl-1-{3(S)-{{(2,5-dichlorophenyl)carbonyl}amino}-2(R)-hydroxy-4-phenylbutyl}-4(R)-(4-pyridinylthio)piperidine-2(S)-carboxamide]

IC50 ([1]; Table IV): 1.9 nM
EC50 ([2]; Table IV): 33 nM
Structure (SMILES): CC(C)(C)NC(=O)[C@@H]1C[C@H](Sc2ccccc2)CCN1C[C@@H](O)[C@H](Cc1ccccc1)NC(=O)[C@H](CC(N)=O)NC(=O)c1ccc2ccccc2c1 [Table IV, entry 25, N-tert-butyl-1-{2(R)-hydroxy-3(S)-{{N-(2-naphthalenylcarbonyl)asparaginyl}amino}-4-phenylbutyl}-4(R)-(phenylthio)piperidine-2(S)-carboxamide]

IC50 ([1]; Table IV): 2.5 nM
EC50 ([2]; Table IV): 42 nM
Structure (SMILES): CC(C)(C)NC(=O)[C@@H]1C[C@H](Oc2ccccc2)CCN1C[C@@H](O)[C@H](Cc1ccccc1)NC(=O)[C@H](CC(N)=O)NC(=O)OCc1ccccc1 [Table IV, entry 17]

IC50 ([1]; Table V): 4.2 nM
EC50 ([2]; Table V): 22 nM
Structure (SMILES): CC(C)[C@H](NC(=O)c1ccc2ccccc2n1)C(=O)N[C@@H](Cc1ccccc1)[C@H](O)CN1CC[C@@H](OCc2ccncc2)C[C@H]1C(=O)NC(C)(C)C [Table V, entry 16, N-tert-butyl-1-{2(S)(R)-hydroxy-4-phenyl-3(S)-{{N-(2-quinolylinylcarbonyl)valyl}amino}butyl}-4(R)-(4-pyridinylmethoxy)piperidine-2-carboxamide]

IC50 ([1]; Table V): 1.7 nM
EC50 ([2]; Table V): 13 nM
Structure (SMILES): CC(C)[C@H](NC(=O)c1ccc2ccccc2n1)C(=O)N[C@@H](Cc1ccccc1)[C@H](O)CN1CC[C@@H](S(=O)(=O)c2ccccn2)C[C@H]1C(=O)NC(C)(C)C [Table V, entry 20, N-tert-butyl-1-{2(S)(R)-hydroxy-4-phenyl-3(S)-{{N-(2-quinolylinylcarbonyl)valyl}amino}butyl}-4(R)-(2-pyridinylsulfonyl)piperidine-2-carboxamide]

IC50 ([1]; Table V): 1.9 nM
EC50 ([2]; Table V): 4 nM
Structure (SMILES): CC(C)[C@H](NC(=O)c1ccc2ccccc2n1)C(=O)N[C@@H](Cc1ccccc1)[C@H](O)CN1CC[C@@H](Sc2ccccn2)C[C@H]1C(=O)NC(C)(C)C [Table V, entry 6, N-tert-butyl-1-{2(S)(R)-hydroxy-4-phenyl-3(S)-{{N-(2-quinolylinylcarbonyl)valyl}amino}butyl}-4(R)-(2-pyridinylthio)piperidine-2-carboxamide]

IC50 ([1]; Table IV): 3 nM
EC50 ([2]; Table IV): 9 nM
Structure (SMILES): Cc1cc(C)nc(S[C@@H]2CCN(C[C@@H](O)[C@H](Cc3ccccc3)NC(=O)[C@@H](NC(=O)OCc3ccccc3)C(C)C)[C@H](C(=O)NC(C)(C)C)C2)n1 [Table IV, entry 36, N-tert-butyl-1-{3(S)-{{N-(benzyloxycarbonyl)valy}amino}-2(R)-hydroxy-4-phenylbutyl}-4(R)-(4,6-dimethyl-2-pyrimidinylthio)piperidine-2(S)-carboxamide]

IC50 ([1]; Table V): 4.2 nM
EC50 ([2]; Table V): 5 nM
Structure (SMILES): CC(C)[C@H](NC(=O)c1ccc2ccccc2n1)C(=O)N[C@@H](Cc1ccccc1)[C@H](O)CN1CC[C@@H](SCc2ccccn2)C[C@H]1C(=O)NC(C)(C)C [Table V, entry 9, N-tert-butyl-1-{2(S)(R)-hydroxy-4-phenyl-3(S)-{{N-(2-quinolylinylcarbonyl)valyl}amino}butyl}-4(R)-{(2-pyridinylmethyl)thio}piperidine-2-carboxamide]

IC50 ([1]; Table VI): 2.1 nM
EC50 ([2]; Table VI): 29 nM
Structure (SMILES): CC(C)(C)NC(=O)[C@@H]1C[C@H](S(=O)(=O)c2ccncc2)CCN1C[C@@H](O)[C@H](Cc1ccccc1)NC(=O)[C@@H](NC(=O)c1ccc2ccccc2n1)C(C)(C)C [Table VI, entry 7, N-tert-butyl-1-{2(R)-hydroxy-4-phenyl-3(S)-{{N-(2-quinolylinylcarbonyl)tert-butylglycyl}amino}butyl}-4(R)-(4-pyridinylsulfonyl)piperidine-2(S)-carboxamide]

IC50 ([1]; Table V): 2.6 nM
EC50 ([2]; Table V): 22 nM
Structure (SMILES): CC(C)[C@H](NC(=O)c1ccc2ccccc2n1)C(=O)N[C@@H](Cc1ccccc1)[C@H](O)CN1CC[C@@H](Oc2ccc(F)cc2)C[C@H]1C(=O)NC(C)(C)C [Table V, entry 15, N-tert-butyl-1-{2(S)(R)-hydroxy-4-phenyl-3(S)-{{N-(2-quinolylinylcarbonyl)valyl}amino}butyl}-4(R)-{(4-fluorophenyl)oxy}piperidine-2-carboxamide]

IC50 ([1]; Table IV): 3.5 nM
EC50 ([2]; Table IV): 24 nM
Structure (SMILES): CC(C)[C@H](NC(=O)OCc1ccccc1)C(=O)N[C@@H](Cc1ccc(F)cc1)[C@H](O)CN1CC[C@@H](Sc2ccccc2)C[C@H]1C(=O)NC(C)(C)C [Table IV, entry 26, N-tert-butyl-1-{3(S)-{{N-(benzyloxycarbonyl)valyl}amino}-2(R)-hydroxy-4-(4-fluorophenyl)butyl}-4(R)-(phenylthio)piperidine-2(S)-carboxamide]

IC50 ([1]; Table IV): 4.9 nM
EC50 ([2]; Table IV): 500 nM
Structure (SMILES): CC[C@H](C)[C@H](NC(=O)OCc1ccccn1)C(=O)N[C@@H](Cc1ccccc1)[C@H](O)CN1CC[C@@H](c2ccccc2)C[C@H]1C(=O)NC(C)(C)C [Table IV, entry 27, N-tert-butyl-1-{2(R)-hydroxy-4-phenyl-3(S)-{{N-{(2-pyridinylmethoxy)carbonyl}isoleucyl}amino}butyl}-4(R)-phenylpiperidine-2(S)-carboxamide]

IC50 ([1]; Table IV): 8 nM
EC50 ([2]; Table IV): 200 nM
Structure (SMILES): CC(C)[C@H](NC(=O)OCc1ccccc1)C(=O)N[C@@H](Cc1ccccc1)[C@H](O)CN1CC[C@@H](C2CCCCC2)C[C@H]1C(=O)NC(C)(C)C [Table IV, entry 19]

IC50 ([1]; Table V): 4.5 nM
EC50 ([2]; Table V): 44 nM
Structure (SMILES): Cc1ccnc(O[C@@H]2CCN(C[C@@H](O)[C@H](Cc3ccccc3)NC(=O)[C@@H](NC(=O)c3ccc4ccccc4n3)C(C)C)[C@H](C(=O)NC(C)(C)C)C2)n1 [Table V, entry 12, N-tert-butyl-1-{2(S)(R)-hydroxy-4-phenyl-3(S)-{{N-(2-quinolylinylcarbonyl)valyl}amino}butyl}-4(R)-{(4-methyl-2-pyrimidinyl)oxy}piperidine-2-carboxamide]

IC50 ([1]; Table VI): 3.7 nM
EC50 ([2]; Table VI): 13 nM
Structure (SMILES): CNC(=O)C[C@H](NC(=O)c1ccc2ccccc2n1)C(=O)N[C@@H](Cc1ccccc1)[C@H](O)CN1CC[C@@H](Oc2ccccc2)C[C@H]1C(=O)NC(C)(C)C [Table VI, entry 4, N-tert-butyl-1-{2(R)-hydroxy-4-phenyl-3(S)-{{N-(2-quinolylinylcarbonyl)(N^4-methyl)asparaginyl}amino}butyl}-4(R)-phenoxypiperidine-2(S)-carboxamide]

IC50 ([1]; Table IV): 8 nM
EC50 ([2]; Table IV): 140 nM
Structure (SMILES): CC(C)(C)NC(=O)[C@@H]1C[C@H](Sc2ccncc2)CCN1C[C@@H](O)[C@H](Cc1ccccc1)NC(=O)OCc1ccccc1 [Table IV, entry 29]

IC50 ([1]; Table VII): 5.4 nM
EC50 ([2]; Table VII): 340 nM
Structure (SMILES): CC(C)(C)NC(=O)[C@@H]1C[C@H](Sc2ccncc2)CCN1C[C@@H](O)[C@H](Cc1ccccc1)NC(=O)c1ccc(Cl)cc1Cl [Table VII, entry 6, N-tert-butyl-1-{3(S)-{{(2,4-dichlorophenyl)carbonyl}amino}-2(R)-hydroxy-4-phenylbutyl}-4(R)-(4-pyridinylthio)piperidine-2(S)-carboxamide]

IC50 ([1]; Table IV): 2.3 nM
EC50 ([2]; Table IV): 7 nM
Structure (SMILES): CC(C)[C@H](NC(=O)OCc1ccccc1)C(=O)N[C@@H](Cc1ccccc1)[C@H](O)CN1CC[C@@H](SCc2ccccc2)C[C@H]1C(=O)NC(C)(C)C [Table IV, entry 37, N-tert-butyl-1-{3(S)-{{N-(benzyloxycarbonyl)valyl}amino}-2(R)-hydroxy-4-phenylbutyl}-4(R)-(benzylthio)piperidine-2(S)-carboxamide]

IC50 ([1]; Table VI): 2.9 nM
EC50 ([2]; Table VI): 44 nM
Structure (SMILES): CC(C)(C)NC(=O)[C@@H]1C[C@H](S(=O)(=O)c2ccccn2)CCN1C[C@@H](O)[C@H](Cc1ccccc1)NC(=O)[C@@H](NC(=O)c1ccc2ccccc2n1)C(C)(C)C [Table VI, entry 8, N-tert-butyl-1-{2(R)-hydroxy-4-phenyl-3(S)-{{N-(2-quinolylinylcarbonyl)tert-butylglycyl}amino}butyl}-4(R)-(2-pyridinylsulfonyl)piperidine-2(S)-carboxamide]

IC50 ([1]; Table IV): 2.9 nM
EC50 ([2]; Table IV): 1270 nM
Structure (SMILES): CC(C)(C)NC(=O)[C@@H]1C[C@H](S(=O)(=O)c2ccccc2)CCN1C[C@@H](O)[C@H](Cc1ccccc1)NC(=O)[C@H](CC(N)=O)NC(=O)OCc1ccccc1 [Table IV, entry 15]
